In ChEMBL document CHEMBL1201862, “PubChem BioAssay data set” (2004):
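All cell lines were grown in 96-well plates and treated with compound for 48 hours. Here, GI50 denotes the concentration required for 50% inhibition of growth.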 The source made the active and inactive calls. Cut-off read from the data, not from the text of the source: active = GI50 up to about 1.1 µM and inactive = higher.

What was measured:
Assay in all cases: NCI-60 cell line screen, 48 h
[1] = tested on: 786-0
[2] = tested on: ACHN
[3] = tested on: BT-549
[4] = tested on: CAKI-1
[5] = tested on: CCRF-CEM
[6] = tested on: EKVX
[7] = tested on: HCC 2998
[8] = tested on: HCT-116
[9] = tested on: HT-29
[10] = tested on: KM12
[11] = tested on: MDA-MB-231
[12] = tested on: MDA-N
[13] = tested on: Malme-3M
[14] = tested on: NCI-H460
[15] = tested on: OVCAR-5
[16] = tested on: PC-3
[17] = tested on: SF-539
[18] = tested on: SK-MEL-28
[19] = tested on: T47D

| Compound | GI50 [1] | GI50 [2] | GI50 [3] | GI50 [4] | GI50 [5] | GI50 [6] | GI50 [7] | GI50 [8] | GI50 [9] | GI50 [10] | GI50 [11] | GI50 [12] | GI50 [13] | GI50 [14] | GI50 [15] | GI50 [16] | GI50 [17] | GI50 [18] | GI50 [19] |
| --- | --- | --- | --- | --- | --- | --- | --- | --- | --- | --- | --- | --- | --- | --- | --- | --- | --- | --- | --- |
| CSC1=NN(C(C)=O)C(C(OC(C)=O)C(OC(C)=O)C(OC(C)=O)C(COC(C)=O)OC(C)=O)S1 (stereo unspecified) | > 100 µM (inactive) | > 100 µM (inactive) | > 100 µM (inactive) | > 100 µM (inactive) | > 100 µM (inactive) | > 100 µM (inactive) | > 100 µM (inactive) | > 100 µM (inactive) | > 100 µM (inactive) | > 100 µM (inactive) | > 100 µM (inactive) | > 100 µM (inactive) | > 100 µM (inactive) | > 100 µM (inactive) | > 100 µM (inactive) | > 100 µM (inactive) | > 100 µM (inactive) | > 100 µM (inactive) | > 100 µM (inactive) |
| O=C(/C=C/c1ccccc1O)CC(=O)/C=C/c1ccccc1O | 4.21 µM (inactive) | 5.92 µM (inactive) | 5.62 µM (inactive) | 17.9 µM (inactive) | 3.1 µM (inactive) | 13.3 µM (inactive) | 10.5 µM (inactive) | 2.38 µM (inactive) | 1.84 µM (inactive) | 6.4 µM (inactive) | > 10 µM (inactive) | 2.97 µM (inactive) | 11.7 µM (inactive) | 7.45 µM (inactive) | > 10 µM (inactive) | 5.28 µM (inactive) | 5.9 µM (inactive) | 12.8 µM (inactive) | 5.45 µM (inactive) |
| COc1ccc2c(c1)[n+]([O-])c(C#N)c(N1CCN(c3ccc([N+](=O)[O-])cc3)CC1)[n+]2[O-] | 8.63 µM (inactive) | 2.7 µM (inactive) | 3.69 µM (inactive) | 6 µM (inactive) | 1.92 µM (inactive) | 2.74 µM (inactive) | > 100 µM (inactive) | 3.66 µM (inactive) | > 22.4 µM (inactive) | 6.87 µM (inactive) | 5.31 µM (inactive) | 7.35 µM (inactive) | 2.64 µM (inactive) | 3.63 µM (inactive) | 7.1 µM (inactive) | 3.34 µM (inactive) | 2.21 µM (inactive) | 16.3 µM (inactive) | 2.01 µM (inactive) |
| CCOC(=O)C1CCCCN1CCc1c[nH]c2ccccc12 (stereo unspecified) | > 100 µM (inactive) | > 100 µM (inactive) | 75 µM (inactive) | > 100 µM (inactive) | > 100 µM (inactive) | > 100 µM (inactive) | > 100 µM (inactive) | 60 µM (inactive) | 50.9 µM (inactive) | > 100 µM (inactive) | > 100 µM (inactive) | > 100 µM (inactive) | > 100 µM (inactive) | 94.8 µM (inactive) | > 100 µM (inactive) | > 100 µM (inactive) | > 100 µM (inactive) | > 100 µM (inactive) | 32.5 µM (inactive) |
| CCCCn1cnnc1NS(=O)(=O)c1cc(C)c(Cl)cc1SCC(=O)O | > 10 µM (inactive) | > 10 µM (inactive) | > 10 µM (inactive) | > 10 µM (inactive) | > 10 µM (inactive) | > 10 µM (inactive) | > 10 µM (inactive) | > 10 µM (inactive) | > 10 µM (inactive) | > 10 µM (inactive) | > 10 µM (inactive) | > 10 µM (inactive) | > 10 µM (inactive) | > 10 µM (inactive) | > 10 µM (inactive) | > 10 µM (inactive) | > 10 µM (inactive) | > 10 µM (inactive) | > 10 µM (inactive) |
| CO/C(=N\N=C\c1cccc(C(F)(F)F)c1)c1ccncc1 | 5.77 µM (inactive) | 8.13 µM (inactive) | 7.13 µM (inactive) | 1.8 µM (inactive) | 4.62 µM (inactive) | 13.8 µM (inactive) | 6.41 µM (inactive) | 5.52 µM (inactive) | 4.62 µM (inactive) | 5.19 µM (inactive) | 7.14 µM (inactive) | 2.13 µM (inactive) | 4.6 µM (inactive) | 4.97 µM (inactive) | 32.5 µM (inactive) | 40.7 µM (inactive) | 4.67 µM (inactive) | 24.3 µM (inactive) | 37.2 µM (inactive) |
| CCOC(=O)c1c(N2CCCC2)ncn(Cc2ccccc2)c1=S | > 100 µM (inactive) | 95.1 µM (inactive) | > 100 µM (inactive) | 30.6 µM (inactive) | > 100 µM (inactive) | > 100 µM (inactive) | > 100 µM (inactive) | > 100 µM (inactive) | > 100 µM (inactive) | > 100 µM (inactive) | > 100 µM (inactive) | > 100 µM (inactive) | > 100 µM (inactive) | > 100 µM (inactive) | > 100 µM (inactive) | 90.4 µM (inactive) | > 100 µM (inactive) | > 100 µM (inactive) | 93.8 µM (inactive) |
| O=[N+]([O-])c1ccc(C(=S)Nc2ccccc2)o1 | 2.07 µM (inactive) | 2.36 µM (inactive) | 4.76 µM (inactive) | 4.11 µM (inactive) | 2.45 µM (inactive) | 5.11 µM (inactive) | 1.69 µM (inactive) | 1.81 µM (inactive) | 1.85 µM (inactive) | 2.38 µM (inactive) | 2.74 µM (inactive) | 2.96 µM (inactive) | 2.91 µM (inactive) | 3.19 µM (inactive) | 4.54 µM (inactive) | 1.79 µM (inactive) | 1.58 µM (inactive) | 4.27 µM (inactive) | 4.33 µM (inactive) |
| C[C@H](CCc1nc(C#N)c(N)o1)[C@H]1CC[C@H]2[C@@H]3CCC4C[C@@H](O)CC[C@]4(C)[C@H]3C[C@@H](O)[C@]12C (stereo partly specified) | 10.8 µM (inactive) | 14.9 µM (inactive) | 2.65 µM (inactive) | 14.4 µM (inactive) | 0.143 µM (active) | 12.9 µM (inactive) | 16.6 µM (inactive) | 12.7 µM (inactive) | 13.5 µM (inactive) | 10.7 µM (inactive) | 17.1 µM (inactive) | 13.9 µM (inactive) | 14.4 µM (inactive) | 14.6 µM (inactive) | 18.6 µM (inactive) | 4.33 µM (inactive) | 10.2 µM (inactive) | 13.1 µM (inactive) | 14.5 µM (inactive) |
| O=C(c1c(F)c(F)c(F)c(F)c1F)n1c(O)nc2ccccc21 | 10.8 µM (inactive) | 16.1 µM (inactive) | 18.5 µM (inactive) | 5.82 µM (inactive) | 4.53 µM (inactive) | 13.9 µM (inactive) | 3.56 µM (inactive) | 3.49 µM (inactive) | 6.28 µM (inactive) | 1.54 µM (inactive) | 12.2 µM (inactive) | 7.33 µM (inactive) | 14.8 µM (inactive) | 12.8 µM (inactive) | 15.7 µM (inactive) | 7.93 µM (inactive) | 13.6 µM (inactive) | 15 µM (inactive) | 3.94 µM (inactive) |
| CCOP(=O)(O)C(Nc1ccc(/N=N/c2ccccc2)cc1)c1ccc(C(Nc2ccc(/N=N/c3ccccc3)cc2)P(=O)(O)OCC)cc1 (stereo unspecified) | 26.8 µM (inactive) | > 100 µM (inactive) | 18.1 µM (inactive) | 44.6 µM (inactive) | 22.1 µM (inactive) | 18.7 µM (inactive) | 17.9 µM (inactive) | 18.3 µM (inactive) | 18.3 µM (inactive) | 16.5 µM (inactive) | 30 µM (inactive) | 19.4 µM (inactive) | 17.9 µM (inactive) | 22 µM (inactive) | 22.4 µM (inactive) | 17.1 µM (inactive) | 19.2 µM (inactive) | 19.2 µM (inactive) | 15.3 µM (inactive) |
| CC(=O)OCCN(C1=NCCN1)/[N+](C=c1ccc(=C=[N-])cc1)=C/c1ccc(C#N)cc1 | > 100 µM (inactive) | > 100 µM (inactive) | > 100 µM (inactive) | > 100 µM (inactive) | > 100 µM (inactive) | > 100 µM (inactive) | > 100 µM (inactive) | > 100 µM (inactive) | > 100 µM (inactive) | > 100 µM (inactive) | > 100 µM (inactive) | > 100 µM (inactive) | > 100 µM (inactive) | > 100 µM (inactive) | > 100 µM (inactive) | > 100 µM (inactive) | > 100 µM (inactive) | > 100 µM (inactive) | > 100 µM (inactive) |
| CC(=O)Oc1cccc2c1C(=O)c1c(OC(C)=O)cc(C)cc1C2=O | 20.4 µM (inactive) | 78.3 µM (inactive) | 61.1 µM (inactive) | > 100 µM (inactive) | 18.8 µM (inactive) | 24.4 µM (inactive) | 61.7 µM (inactive) | 33.6 µM (inactive) | 39.6 µM (inactive) | 39.5 µM (inactive) | 43 µM (inactive) | 58.5 µM (inactive) | 17.1 µM (inactive) | 26.1 µM (inactive) | > 100 µM (inactive) | 26.1 µM (inactive) | 26.3 µM (inactive) | 27.9 µM (inactive) | 32.4 µM (inactive) |
| C[C@@H]1C[C@H]2CC[C@H](O2)[C@H](C)C(=O)O[C@@H](C)C[C@@H]2CC[C@@H](O2)[C@@H](C)C(=O)O[C@H](C)C[C@H]2CC[C@H](O2)[C@H](C)C(=O)O[C@@H](C)C[C@@H]2CC[C@@H](O2)[C@@H](C)C(=O)O1 | 0.445 µM (active) | 0.212 µM (active) | 0.396 µM (active) | 0.826 µM (active) | 0.292 µM (active) | 0.283 µM (active) | 1.1 µM (active) | 0.315 µM (active) | 0.237 µM (active) | 0.256 µM (active) | 0.345 µM (active) | 0.404 µM (active) | 0.199 µM (active) | 0.426 µM (active) | 0.568 µM (active) | 0.218 µM (active) | 1.58 µM (inactive) | 1.96 µM (inactive) | 0.189 µM (active) |
